Measured values as given in patent publication US20130267484A1, “TREATMENT OF RHEUMATOID ARTHRITIS WITH MASITINIB” (AB SCIENCE, priority 2010, published 2013).
Where “and” joins values, the source holds several entries; their conditions need not be identical. Equal entries are not always repeated.

Tested on: DMARD-refractory active RA
Experiment: Phase 2a trial of masitinib in DMARD-refractory active RA: efficacy (ACR, ACRn, CRP, DAS28)
Type: in vivo, Human
Set-up: ACRn Mean ± SD / ACRn Median: unit not given here
Excerpt: The main exclusion criteria were patients with: inadequate bone marrow function, defined as an absolute neutrophil count ≦2.5×10^9/litre, and platelets ≦100×10^9/litre; active current infection, history of infection requiring hospitalisation, history of recurrent infections, or treatment with antibiotics within 2 weeks of screening. Treatment wash-out periods observed prior to entry to the study were: a) DMARD use within 4 weeks; b) five half-lives, or wash-out in accordance for a specific drug, whichever is longer; c) any live (attenuated) vaccines taken within 4 weeks; d) use of more than one NSAID or its dosage change within 4 weeks; e) prednisone or equivalent corticosteroid dosage >10 mg/day or any dosage change within 4 weeks; and f) prednisone or equivalent corticosteroid dosage >20 mg administered via intra-articular injection, bolus intramuscular or intravenous treatment within 4 weeks. Other exclusion criteria included any previous use of recombinant interleukin-1 receptor antagonist (IL1-Ra) and patients who were pregnant or nursing.
Efficacy data are presented using descriptive statistics, contrasting initial dosage groups or according to previous DMARD failure. For comparison of groups according to initial dosage on a continuous variable, Student test (with Satterwhaite correction for unequal variance) or Wilcoxon test were used when normality was not rejected or rejected, respectively (normality determined via the Shapiro-Wilk test). For the same comparison on a qualitative variable, Chi-square or Fisher Exact test (if the Chi-square hypotheses were not filled) were used. The rate of patients achieving the various ACR response variables after 12 weeks of treatment (remission rate) are presented in terms of percentage and number of patients. Patients were assigned to either 3 or 6 mg/kg/day treatment groups based upon a randomisation schedule generated for packaging and labelling by the Biostatistics Section of AB Science. Individual treatment doses to be administered were supplied in sealed envelopes to be opened by the investigator at time of inclusion. Patients received the treatment from the investigator on an open basis.
Due to the relatively high patient drop-out rate of this study, analysis was conducted on two different datasets: one with an imputation of missing values according to the last observation carried forward (LOCF) methodology and the other in the absence of data imputation, i.e. the observed cases (OC). Analysis for efficacy was performed on a modified Intention-To-Treat (ITT) population and Per Protocol (PP) population. […] The PP population was defined as a subgroup of the ITT population that in addition had presented no major protocol deviations and had completed at least 28 days of treatment exposure.

[1] = W 60, extension phase, ITT population, n = 8
[2] = W 72, extension phase, ITT population, n = 7
[3] = W 72, extension phase, ITT population, n = 9
[4] = W 84, extension phase, ITT population, n = 4
[5] = W 84, extension phase, ITT population, n = 8
[6] = initial dosage 3 mg/kg/day (n = 22), ITT population
[7] = initial dosage 3 mg/kg/day (n = 22), ITT population, listed as Masitinib
[8] = initial dosage 6 mg/kg/day (n = 18), ITT population
[9] = week 12, ITT LOCF, All patients (n = 34)
[10] = week 12, ITT LOCF, All patients (n = 39)
[11] = week 12, ITT LOCF, Resistance to MTX (n = 28)
[12] = week 12, ITT LOCF, Resistance to MTX (n = 32)
[13] = week 12, ITT LOCF, Resistance to anti-TNFα (n = 18)
[14] = week 12, ITT LOCF, Resistance to anti-TNFα (n = 19)
[15] = week 12, PP OC, All patients (n = 24)
[16] = week 12, PP OC, All patients (n = 27)
[17] = week 12, PP OC, Resistance to MTX (n = 20)
[18] = week 12, PP OC, Resistance to MTX (n = 23)
[19] = week 12, PP OC, Resistance to anti-TNFα (n = 13)
[20] = week 12, PP OC, Resistance to anti-TNFα (n = 14)

Compound: Cc1ccc(NC(=O)c2ccc(CN3CCN(C)CC3)cc2)cc1Nc1nc(-c2cccnc2)cs1 [masitinib, 4-(4-methylpiperazin-1-ylmethyl)-N-[4-methyl-3-(4-pyridin-3ylthiazol-2-ylamino)phenyl]benzamide]
- ACRn Median [1]: 64.9
- ACRn Min-Max [1]: 10.0-93.3
- DAS28 <2.6, patients [2]: 1 (14%)
- DAS28 Mean ± SD [2]: 3.5 ± 1.5
- DAS28 Median [2]: 3.0
- DAS28 Min-Max [2]: 1.6-6.1
- DAS28 ≦3.2, patients [2]: 4 (57%)
- ACR20, patients reaching level [3]: 6 (67%)
- ACR50, patients reaching level [3]: 3 (33%)
- ACR70, patients reaching level [3]: 2 (22%)
- ACR90, patients reaching level [3]: 1 (11%)
- ACRn Mean ± SD [3]: 35.6 ± 41.3
- ACRn Median [3]: 39.7
- ACRn Min-Max [3]: −27.8-97.4
- CRP 0% < Improvement ≦25%, patients [3]: 1 (11%)
- CRP 25% < Improvement ≦50%, patients [3]: 1 (11%)
- CRP Deterioration, patients [3]: 1 (11%)
- CRP Improvement >50%, patients [3]: 6 (68%)
- CRP Stable, patients [3]: 0 (0%)
- DAS28 <2.6, patients [4]: 2 (50%)
- DAS28 Mean ± SD [4]: 3.1 ± 1.6
- DAS28 Median [4]: 2.5
- DAS28 Min-Max [4]: 1.9-5.5
- DAS28 ≦3.2, patients [4]: 3 (75%)
- ACR20, patients reaching level [5]: 7 (88%)
- ACR50, patients reaching level [5]: 5 (63%)
- ACR70, patients reaching level [5]: 2 (25%)
- ACR90, patients reaching level [5]: 1 (13%)
- ACRn Mean ± SD [5]: 50.9 ± 38.0
- ACRn Median [5]: 55.0
- ACRn Min-Max [5]: −17.6-98.8
- CRP 0% < Improvement ≦25%, patients [5]: 1 (13%)
- CRP 25% < Improvement ≦50%, patients [5]: 1 (13%)
- CRP Deterioration, patients [5]: 1 (13%)
- CRP Improvement >50%, patients [5]: 5 (63%)
- CRP Stable, patients [5]: 0 (0%)
- Share of patients achieving ACR20 who did so at the stated dosage at time of first response (dosage not given): approximately 65%
- Share of patients achieving ACR50 who did so at the stated dosage at time of first response (dosage not given): ~73%
- Patients achieving up to 90% improvement (ACR90) (extension phase, after 1 year of treatment (60 weeks)): two
- Duration over which observed improvement is maintained (extension phase, preliminary): > 84 weeks
- Time to first response ACR20, Mean ± SD [6]: 51.9 ± 24.5 days
- Time to first response ACR20, Median [6]: 56 days
- Time to first response ACR20, Min-Max [6]: 28.0 to 105.0 days
- Time to first response ACR50, Mean ± SD [6]: 91.9 ± 59.5 days
- Time to first response ACR50, Median [6]: 84 days
- Time to first response ACR50, Min-Max [6]: 28.0 to 217.0 days
- Time to first response ACR20, Median [7]: 56.0 days
- Time to first response ACR50, Median [7]: 84.0 days
- Time to first response ACR20, Mean ± SD [8]: 40.3 ± 19.0 days
- Time to first response ACR20, Median [8]: 29 days
- Time to first response ACR20, Min-Max [8]: 28.0 to 86.0 days
- Time to first response ACR50, Mean ± SD [8]: 86.8 ± 61.1 days
- Time to first response ACR50, Median [8]: 72.5 days
- Time to first response ACR50, Min-Max [8]: 28.0 to 203.0 days
- Time to first response ACR20, Median (initial dosage 6 mg/kg/day (n = 18), ITT population, listed as Masitinib): 29.0 days
- Patients achieving ACR20 and ΔCRP>50% response criteria (regardless of previous treatment (anti-TNFα or MTX failure)): approximately 50%
- Patients with significant reduction (>50%) in CRP levels (week 12): approximately 50%
- DAS28 Mean ± SD [9]: 4.8 ± 1.5
- DAS28 Min-Max [9]: 0.5-7.0
- ΔDAS28 (change in DAS28 score from baseline) [9]: 1.7
- ACRn Mean ± SD [10]: 23.0 and 23.0 ± 37.5
- ACRn Median [10]: 25.7
- ACRn Min-Max [10]: −62.5-87.5
- DAS28 Mean ± SD [11]: 4.8 ± 1.5
- DAS28 Min-Max [11]: 0.5-7.0
- ΔDAS28 (change in DAS28 score from baseline) [11]: 1.8
- ACRn Mean ± SD [12]: 24.1 ± 38.8
- ACRn Median [12]: 32.7
- ACRn Min-Max [12]: −62.5-87.5
- DAS28 Mean ± SD [13]: 5.2 ± 1.1
- DAS28 Min-Max [13]: 3.3-7.0
- ΔDAS28 (change in DAS28 score from baseline) [13]: 1.7
- ACRn Mean ± SD [14]: 18.7 ± 36.8
- ACRn Median [14]: 20.6
- ACRn Min-Max [14]: −62.5-72.2
- DAS28 Mean ± SD [15]: 4.6 ± 1.3
- DAS28 Min-Max [15]: 0.5-7.0
- ΔDAS28 (change in DAS28 score from baseline) [15]: 2.0
- ACRn Mean ± SD [16]: 31.6
- ACRn Median [16]: 42.9
- ACRn Min-Max [16]: −40.0-87.5
- DAS28 Mean ± SD [17]: 4.6 ± 1.4
- DAS28 Min-Max [17]: 0.5-7.0
- ΔDAS28 (change in DAS28 score from baseline) [17]: 2.1
- ACRn Mean ± SD [18]: 36.6 ± 31.6
- ACRn Median [18]: 46.9
- ACRn Min-Max [18]: −40.0-87.5
- DAS28 Mean ± SD [19]: 5.1 ± 1.2
- DAS28 Min-Max [19]: 3.3-7.0
- ΔDAS28 (change in DAS28 score from baseline) [19]: 1.8
- ACRn Mean ± SD [20]: 28.1 ± 32.1
- ACRn Median [20]: 44.3
- ACRn Min-Max [20]: 40.0-72.2
